Measurements: ChEMBL document CHEMBL5131468, “Systematic comparison of activity and mechanism of antimicrobial peptides against nosocomial pathogens” (Eur J Med Chem, 2022)
≈ marks a conversion by molar mass, not a printed value. Calls of active or inactive are those of the source. The rule behind the calls is not given here. Peptide text beside a SMILES is read from it.

What was measured:
Escherichia coli [1] = test: Bactericidal activity against Escherichia coli ATCC 25922 incubated for 90 mins by serial dilution assay; format: functional
Staphylococcus aureus [2] = test: Antibacterial activity against Methicillin resistant Staphylococcus aureus ATCC 33591 assessed as inhibition of bacterial growth incubated for 90 mins by serial dilution assay; format: functional
Staphylococcus aureus [3] = test: Antibacterial activity against Staphylococcus aureus ATCC 29213 assessed as inhibition of bacterial growth incubated for 90 mins by serial dilution assay; format: functional
Enterococcus faecalis [4] = test: Antibacterial activity against Enterococcus faecalis ATCC 29212 assessed as inhibition of bacterial growth incubated for 90 mins by serial dilution assay; format: functional
Staphylococcus aureus [5] = test: Bactericidal activity against Staphylococcus aureus ATCC 29213 incubated for 90 mins by serial dilution assay; format: functional
Enterococcus faecalis [6] = test: Bactericidal activity against Enterococcus faecalis ATCC 29212 incubated for 90 mins by serial dilution assay; format: functional
Escherichia coli [7] = test: Bactericidal activity against Escherichia coli BAA3051 incubated for 90 mins by serial dilution assay; format: functional
Salmonella typhimurium [8] = test: Bactericidal activity against Salmonella enterica serovar typhimurium SL1344 incubated for 90 mins by serial dilution assay; format: functional
Escherichia coli [9] = test: Antibacterial activity against Escherichia coli ATCC 25922 assessed as inhibition of bacterial growth incubated for 90 mins by serial dilution assay; format: functional
Salmonella typhimurium [10] = test: Antibacterial activity against Salmonella enterica serovar typhimurium SL1344 assessed as inhibition of bacterial growth incubated for 90 mins by serial dilution assay; format: functional
Staphylococcus aureus [11] = test: Bactericidal activity against Methicillin resistant Staphylococcus aureus ATCC 33591 incubated for 90 mins by serial dilution assay; format: functional
Escherichia coli [12] = test: Antibacterial activity against Escherichia coli BAA3051 assessed as inhibition of bacterial growth incubated for 90 mins by serial dilution assay; format: functional
Cell membrane [13] = test: Induction of membrane depolarization in Enterococcus faecalis ATCC 29212 at 0.25 times MIC after 60 mins by DiOC23 dye based based flow cytometry; format: subcellular
Cell membrane [14] = test: Induction of membrane depolarization in Salmonella enterica serovar typhimurium SL1344 at 0.25 to 0.5 times MIC after 60 mins by DiOC23 dye based based flow cytometry; format: subcellular; conditions: Salmonella enterica subsp. enterica serovar Typhimurium
Cell membrane [15] = test: Induction of membrane depolarization in Staphylococcus aureus ATCC 29213 at 0.5 times MIC after 60 mins by DiOC23 dye based based flow cytometry relative to control; format: subcellular
Cell membrane [16] = test: Induction of membrane depolarization in Salmonella enterica serovar typhimurium SL1344 at 0.5 times MIC after 60 mins by DiOC23 dye based based flow cytometry relative to control; conditions: Salmonella enterica subsp. enterica serovar Typhimurium
Cell membrane [17] = test: Induction of inner membrane damage in Escherichia coli ATCC 25922 assessed disruption of membrane integrity at 0.5 to 256 ug/ml and measured after 90 mins by propidium iodide staining based flow cytometry; format: subcellular; conditions: dose 0.5-256 µg/ml
Cell membrane [18] = test: Induction of membrane depolarization in Staphylococcus aureus ATCC 29213 at 0.25 times MIC after 60 mins by DiOC23 dye based based flow cytometry; format: subcellular
Cell membrane [19] = test: Induction of outer membrane permeabilization in Salmonella enterica serovar typhimurium SL1344 assessed as increase in NPN fluorescence intensity incubated for 15 mins by NPN-dye based fluorescence analysis; format: subcellular; conditions: Salmonella enterica subsp. enterica serovar Typhimurium
Cell membrane [20] = test: Induction of membrane depolarization in Enterococcus faecalis ATCC 29212 at 0.5 times MIC after 60 mins by DiOC23 dye based based flow cytometry relative to control
Cell membrane [21] = test: Induction of membrane depolarization in Escherichia coli ATCC 25922 at 0.25 to 0.5 times MIC after 60 mins by DiOC23 dye based based flow cytometry; format: subcellular
HEK293 [22] = test: Cytotoxicity against human HEK293 cells assessed as decrease in live cells at 250 ug/ml incubated for 2 hrs by MTS assay; format: toxicity, cell-based; conditions: hek293, 2 h, dose 250 µg/ml
Cell membrane [23] = test: Induction of membrane depolarization in Escherichia coli ATCC 25922 at 0.5 times MIC after 60 mins by DiOC23 dye based based flow cytometry relative to control
Cell membrane [24] = test: Induction of outer membrane permeabilization in Escherichia coli ATCC 25922 assessed as increase in NPN fluorescence intensity incubated for 15 mins by NPN-dye based fluorescence analysis; format: subcellular
Staphylococcus aureus [25] = test: Induction of morphological changes in Staphylococcus aureus ATCC 29213 at 0.5 to 2 times MIC incubated for 90 mins by Helium ion microscopy; format: functional, organism-based
HEK293 [26] = test: Cytotoxicity against human HEK293 cells assessed as decrease in live cells upto 125 ug/ml incubated for 2 hrs by MTS assay; format: toxicity, cell-based; conditions: hek293, 2 h, dose < 125 µg/ml
Cell membrane [27] = test: Induction of outer membrane permeabilization in Escherichia coli BAA3051 assessed as increase in NPN fluorescence intensity incubated for 15 mins by NPN-dye based fluorescence analysis
HEK293 [28] = test: Cytotoxicity against human HEK293 cells assessed as increase in LDH release at 31.25 ug/ml incubated for 2 hrs by LDH assay; format: toxicity, cell-based; conditions: hek293, 2 h, dose 31.25 µg/ml
Escherichia coli [29] = test: Induction of morphological changes in Escherichia coli ATCC 25922 at 0.5 times MIC incubated for 90 mins by Helium ion microscopy; format: functional, organism-based
Cell membrane [30] = test: Induction of inner membrane damage in Staphylococcus aureus ATCC 29213 assessed disruption of membrane integrity at 0.5 to 256 ug/ml and measured after 90 mins by propidium iodide staining based flow cytometry; format: subcellular; conditions: dose 0.5-256 µg/ml
Escherichia coli [31] = test: Induction of morphological changes in Escherichia coli ATCC 25922 assessed as leakage in intracellular contents at 0.5 times MIC incubated for 90 mins by Helium ion microscopy; format: functional, organism-based
Escherichia coli [32] = test: Induction of morphological changes in Escherichia coli ATCC 25922 assessed as membrane collapse at 0.5 to 2 times MIC incubated for 90 mins by Helium ion microscopy; format: functional, organism-based
HEK293 [33] = test: Cytotoxicity against human HEK293 cells assessed as decrease in live cells at 15.6 ug/ml incubated for 2 hrs by MTS assay; format: toxicity, cell-based; conditions: hek293, 2 h, dose 15.6 µg/ml
Escherichia coli [34] = test: Induction of morphological changes in Escherichia coli ATCC 25922 assessed as leakage in intracellular contents at 0.5 to 2 times MIC incubated for 90 mins by Helium ion microscopy; format: functional, organism-based
Staphylococcus aureus [35] = test: Induction of morphological changes in Staphylococcus aureus ATCC 29213 incubated for 90 mins by Helium ion microscopy; format: functional, organism-based
Lipid bilayer = test: Induction of membrane disruption in Gram-negative bacterial cell membrane mimic POPE:POPG(7:3) large unilamellar vesicle assessed as carboxyfluorescein leakage by fluorescence analysis
[36] = Salmonella enterica subsp. enterica serovar Typhimurium

## GENTAMICIN
Escherichia coli [1]
  MBC: 6.25 µg/mL
Staphylococcus aureus [2]
  MIC: 7.8 µg/mL
Staphylococcus aureus [3]
  MIC: 3.9 µg/mL
Enterococcus faecalis [4]
  MIC: 3.9 µg/mL
Staphylococcus aureus [5]
  MBC: 6.25 µg/mL
Enterococcus faecalis [6]
  MBC: 31.3 µg/mL
Escherichia coli [7]
  MBC: 1.9 µg/mL
Salmonella typhimurium [8]; [36]
  MBC: 12.5 µg/mL
Escherichia coli [9]
  MIC: 0.9 µg/mL
Salmonella typhimurium [10]; [36]
  MIC: 12.5 µg/mL
Staphylococcus aureus [11]
  MBC: 62.5 µg/mL
Escherichia coli [12]
  MIC: 1.9 µg/mL

## CC[C@H](C)[C@H](NC(=O)[C@H](CO)NC(=O)[C@H](CCCCN)NC(=O)[C@H](Cc1c[nH]c2ccccc12)NC(=O)[C@H](CC(C)C)NC(=O)[C@H](C)N)C(=O)N[C@@H](CC(C)C)C(=O)N[C@@H](CCCCN)C(=O)N[C@@H](CC(N)=O)C(=O)N[C@H](C(=O)NCC(=O)N[C@@H](CCCCN)C(=O)N[C@@H](C)C(=O)N[C@@H](C)C(=O)NCC(=O)N[C@@H](CCCCN)C(=O)N[C@@H](C)C(=O)N[C@H](C(=O)N[C@@H](CC(C)C)C(=O)O)C(C)C)C(C)C (H-ALWKSILKNVGKAAGKAVL-OH)
Cell membrane [13]
  Activity: Active
Escherichia coli [1]; ATCC 25922, 1.5 h
  MBC: 31.3 µg/mL (≈ 15.9 µM)
Cell membrane [14]
  Activity: 30%
Staphylococcus aureus [2]; ATCC 33591, 1.5 h
  MIC: > 125 µg/mL
Staphylococcus aureus [3]; ATCC 29213, 1.5 h
  MIC: 62.5 µg/mL (≈ 31.8 µM)
Enterococcus faecalis [4]; ATCC 29212, 1.5 h
  MIC: 250 µg/mL (≈ 127 µM)
Cell membrane [15]
  Activity: 40%
Staphylococcus aureus [5]; ATCC 29213, 1.5 h
  MBC: > 125 µg/mL
Enterococcus faecalis [6]; ATCC 29212, 1.5 h
  MBC: 250 µg/mL (≈ 127 µM)
Cell membrane [16]
  Activity: 40%
Cell membrane [17]
  Activity: Active
Escherichia coli [7]; BAA3051, 1.5 h
  MBC: 31.3 µg/mL (≈ 15.9 µM)
Cell membrane [18]
  Activity: Active
Cell membrane [19]
  Activity: Active
Cell membrane [20]
  Activity: 40%
Cell membrane [21]
  Activity: 30%
HEK293 [22]
  Activity: Toxic
Salmonella typhimurium [8]; SL1344, 1.5 h
  MBC: 250 µg/mL (≈ 127 µM)
Escherichia coli [9]; ATCC 25922, 1.5 h
  MIC: 31.3 µg/mL (≈ 15.9 µM)
Salmonella typhimurium [10]; SL1344, 1.5 h
  MIC: 250 µg/mL (≈ 127 µM)
Staphylococcus aureus [11]; ATCC 33591, 1.5 h
  MBC: > 250 µg/mL
Cell membrane [23]
  Activity: 40%
Cell membrane [24]
  Activity: Active
Staphylococcus aureus [25]
  Activity: Active
HEK293 [26]
  Activity: Toxic
Cell membrane [27]
  Activity: Active
Escherichia coli [12]; BAA3051, 1.5 h
  MIC: 31.3 µg/mL (≈ 15.9 µM)

## CC[C@H](C)[C@H](NC(=O)[C@H](CCCCN)NC(=O)[C@@H](NC(=O)[C@H](Cc1ccccc1)NC(=O)[C@H](C)NC(=O)[C@H](CCCCN)NC(=O)CNC(=O)[C@H](Cc1ccccc1)NC(=O)[C@H](CCCCN)NC(=O)[C@H](CCCCN)NC(=O)[C@H](C)NC(=O)[C@H](CCCCN)NC(=O)[C@H](CCCCN)NC(=O)[C@H](CC(C)C)NC(=O)[C@H](Cc1ccccc1)NC(=O)[C@@H](N)CCCCN)C(C)C)C(=O)N[C@@H](CC(C)C)C(=O)O (H-KFLKKAKKFGKAFVKIL-OH)
Escherichia coli [1]; ATCC 25922, 1.5 h
  MBC: 15.6 µg/mL (≈ 7.82 µM)
HEK293 [28]
  Activity: Toxic
Escherichia coli [29]
  Activity: Active
Cell membrane [14]
  Activity: 30%
Staphylococcus aureus [2]; ATCC 33591, 1.5 h
  MIC: > 125 µg/mL
Staphylococcus aureus [3]; ATCC 29213, 1.5 h
  MIC: 15.6 µg/mL (≈ 7.82 µM)
Cell membrane [30]
  Activity: Active
Escherichia coli [31]
  Activity: Active
Enterococcus faecalis [4]; ATCC 29212, 1.5 h
  MIC: 31.3 µg/mL (≈ 15.7 µM)
Cell membrane [15]
  Activity: 40%
Staphylococcus aureus [5]; ATCC 29213, 1.5 h
  MBC: 31.3 µg/mL (≈ 15.7 µM)
Enterococcus faecalis [6]; ATCC 29212, 1.5 h
  MBC: 125 µg/mL (≈ 62.7 µM)
Cell membrane [16]
  Activity: 40%
Cell membrane [17]
  Activity: Active
Escherichia coli [7]; BAA3051, 1.5 h
  MBC: 7.8 µg/mL (≈ 3.91 µM)
Cell membrane [19]
  Activity: Active
Cell membrane [20]
  Activity: 40%
Escherichia coli [32]
  Activity: Active
Cell membrane [21]
  Activity: 30%
HEK293 [33]
  Activity: Toxic
Salmonella typhimurium [8]; SL1344, 1.5 h
  MBC: 7.8 µg/mL (≈ 3.91 µM)
Escherichia coli [9]; ATCC 25922, 1.5 h
  MIC: 15.6 µg/mL (≈ 7.82 µM)
Escherichia coli [34]
  Activity: Active
Salmonella typhimurium [10]; SL1344, 1.5 h
  MIC: 7.8 µg/mL (≈ 3.91 µM)
Staphylococcus aureus [11]; ATCC 33591, 1.5 h
  MBC: > 125 µg/mL
Cell membrane [23]
  Activity: 40%
Cell membrane [24]
  Activity: Active
Staphylococcus aureus [35]
  Activity: Active
Staphylococcus aureus [25]
  Activity: Active
Lipid bilayer
  Activity: 20%
Cell membrane [27]
  Activity: Active
Escherichia coli [12]; BAA3051, 1.5 h
  MIC: 7.8 µg/mL (≈ 3.91 µM)
